Assay results reported in patent US20130115671A1, “ENZYMES FROM CONIDIOBOLUS BREFELDIANUS AND PROCESS FOR PREPARATION THEREOF” (Council of Scientific and Industrial Research, priority 2010, published 2013).
Where “and” joins values, the source holds several entries; their conditions need not be identical. Equal entries are not always repeated.

Columns and labels:
[1] = tested on: protease of Conidiobolus brefeldianus MTCC 5185; test: Effect of inhibitors on protease activity (PMSF, EDTA, iodoacetate, DMSO); type: biochemical
Source text: This example illustrates the effect of inhibitors on protease activity of Conidiobolus brefeldianus MTCC 5185. Following inhibitors were studied: phenylmethylsulfonyl fluoride (PMSF), ethylene-diaminetetraacetic acid (EDTA), iodoacetic acid, and dimeth ylsulphoxide (DMSO). The crude culture filtrate grown as described in example 3 was concentrated by ultra-filtration on PM-10 and YM-3 membranes as described in example 27 and used for inhibition studies. Both the protease preparations were pre-incubated in 100 mM Tris-HCl buffer (pH 8.0) with each inhibitor for 1 h and the residual protease activity was measured at 50° C., pH 9.0. Protease without inhibitor served as control.

[2] = tested on: protease of Conidiobolus brefeldianus MTCC 5185; test: Effect of inhibitors on protease activity (TPCK, TLCK, Benzamidine); type: biochemical; settings: 5 mM inhibitor, crude protease pre-incubated 30 min, pH 8.0
Description: This example illustrates the effect of inhibitors on protease activity of Conidiobolus brefeldianus MTCC 5185. Following inhibitors were studied: N-tosyl-L-phenylalanine chloromethyl ketone (TPCK), N-tosyl-L-lysine chloromethyl ketone (TLCK), and Benzamidine. Crude protease was pre-incubated with each inhibitor in 100 mM Tris-HCl buffer (pH 8.0) for 30 min and the residual protease activity was measured 50° C., pH 9.0. Protease without inhibitor served as control.

[3] = tested on: protease from Conidiobolus brefeldianus MTCC 5185; test: Stability of protease in presence of organic solvents at 28° C.; type: physicochemical; parameters: key to residual activity of protease, 0 h / residual activity of protease, 12 h: % of initial activity with respective solvent (initial = 100%); settings: crude protease, 20% (v/v) solvent
Description: This example illustrates the effect of water miscible as well as water immiscible organic solvents on stability of crude protease at 28° C. […] Samples were removed at different time intervals and residual activity was estimated. Sample without organic solvent served as control. Initial activity with respective solvents was taken as 100% (Table 17). […] (Table 17).

[4] = tested on: protease from Conidiobolus brefeldianus MTCC 5185; test: Stability of protease in presence of organic solvents at 37° C.; type: physicochemical; settings: 20% (v/v) solvent; for Residual Activity (%) of protease, 30 min: pH 7, 30 min; for Residual Activity (%) of protease, 60 min: pH 7, 60 min; for Residual Activity (%) of protease, 120 min: pH 7, 120 min; for Residual Activity (%) of protease, 240 min: pH 7, 240 min; for Residual Activity (%) of protease, 0: crude protease, pH 7, 0 min
Description: This example illustrates the effect of water miscible as well as water immiscible organic solvents on stability of crude protease at 37° C. […] Samples were removed at different time intervals and residual activity was estimated. Sample without organic solvent served as control.

[5] = pre-incubated 1 h, pH 8.0, 20 mM EDTA, 10 mM Iodoacetate, 1 mM PMSF (in DMSO), DMSO

Q: For `O=S(=O)(F)Cc1ccccc1` [PMSF, phenylmethylsulfonyl fluoride], which “inhibition of protease” value ([1]; 1 mM PMSF) is on record?
A: The value was “completely inhibited”.

Q: What about the “Inhibition (%) PM-10 Retentate” value [1, 5] of the same compound?
A: The value was 79.27%.

Q: And the “Inhibition (%) YM-3 Retentate” value [1, 5]?
A: The value was 90.24%.

Q: With `O=C(O)CN(CCN(CC(=O)O)CC(=O)O)CC(=O)O` [EDTA, ethylene-diaminetetraacetic acid] as the compound, how does the “Inhibition (%) PM-10 Retentate” value [1, 5] read?
A: The value was 0.0%.

Q: And the “Inhibition (%) YM-3 Retentate” value [1, 5]?
A: Its value is 3.93%.

Q: For “N-tosyl-L-lysine chloromethyl ketone [TLCK]”, which “Inhibition (%)” value [2] is on record?
A: Its value is 29% and 29.22%.

Q: “N-tosyl-L-phenylalanine chloromethyl ketone [TPCK]” was tested. Which “Inhibition (%)” value [2] did it give?
A: Its value is 9% and 9.02%.

Q: What does the source list for `O=C(O)CI` [Iodoacetate, iodoacetic acid]?
A: Inhibition (%) PM-10 Retentate ([1]; pH 8): 0.0%; Inhibition (%) YM-3 Retentate ([1]; pH 8): 16.54%

Q: For `CC(C)O` [Isopropanol, isopropanol], which “residual activity of protease, 0 h” value [3] is on record?
A: The value was 100.

Q: What about the “residual activity of protease, 5 h” value [3] of the same compound?
A: The value was 100.29.

Q: And the “residual activity of protease, 12 h” value [3]?
A: Its value is 57.79.

Q: And the “Residual Activity (%) of protease, 30 min” value [4]?
A: The value was 46.06%.

Q: What about the “Residual Activity (%) of protease, 60 min” value [4] of the same compound?
A: The value was 34.35%.

Q: And the “Residual Activity (%) of protease, 120 min” value [4]?
A: The value was 18.73%.

Q: And the “Residual Activity (%) of protease, 240 min” value [4]?
A: Its value is 17.11%.

Q: What about the “Residual Activity (%) of protease, 0” value [4] of the same compound?
A: The value was 100%.

Q: How did the “residual activity of protease, 0 h” value [3] turn out when `C[S+](C)[O-]` [DMSO, dimethylsulphoxide] was run?
A: Its value is 100.

Q: And the “residual activity of protease, 5 h” value [3]?
A: Its value is 98.12.

Q: What about the “residual activity of protease, 12 h” value [3] of the same compound?
A: Its value is 54.55.

Q: What about the “Residual Activity (%) of protease, 30 min” value [4] of the same compound?
A: Its value is 69.48%.

Q: What about the “Residual Activity (%) of protease, 60 min” value [4] of the same compound?
A: Its value is 68.94%.

Q: What about the “Residual Activity (%) of protease, 120 min” value [4] of the same compound?
A: The value was 48.70%.

Q: What about the “Residual Activity (%) of protease, 240 min” value [4] of the same compound?
A: The value was 28.53%.

Q: And the “Residual Activity (%) of protease, 0” value [4]?
A: Its value is 100%.

Q: And the “Inhibition (%) PM-10 Retentate” value [1, 5]?
A: Its value is 3.02%.

Q: And the “Inhibition (%) YM-3 Retentate” value [1, 5]?
A: The value was 1.37%.
